In patent publication US20170362228A1, “TETRAHYDRO-PYRIDO[3,4-b]INDOLE ESTROGEN RECEPTOR MODULATORS AND USES THEREOF” (Genentech, Inc., priority 2016, published 2017):
Read-outs that look alike come from different tables or passages of the source.

What was measured:
MCF7 cells = assay: In vitro cell proliferation assays (Examples 902 and 903), MCF7; type: cell-based; details: read-out: ER-alpha MCF7 HCS (EC50)
[1] = target: T1, estrogen receptor alpha (ESR1) (Homo sapiens, UniProt P03372); assay: Breast Cancer Cell ERa High Content Fluorescence Imaging Degradation Assay (Example 901); type: cell-based; details: MCF7 breast cancer cells, 4 hours, plateau of the maximal effect
T1 construct: endogenous in cells; host or cells: MCF7 breast cancer cells
T1 sequence (P03372 1-595): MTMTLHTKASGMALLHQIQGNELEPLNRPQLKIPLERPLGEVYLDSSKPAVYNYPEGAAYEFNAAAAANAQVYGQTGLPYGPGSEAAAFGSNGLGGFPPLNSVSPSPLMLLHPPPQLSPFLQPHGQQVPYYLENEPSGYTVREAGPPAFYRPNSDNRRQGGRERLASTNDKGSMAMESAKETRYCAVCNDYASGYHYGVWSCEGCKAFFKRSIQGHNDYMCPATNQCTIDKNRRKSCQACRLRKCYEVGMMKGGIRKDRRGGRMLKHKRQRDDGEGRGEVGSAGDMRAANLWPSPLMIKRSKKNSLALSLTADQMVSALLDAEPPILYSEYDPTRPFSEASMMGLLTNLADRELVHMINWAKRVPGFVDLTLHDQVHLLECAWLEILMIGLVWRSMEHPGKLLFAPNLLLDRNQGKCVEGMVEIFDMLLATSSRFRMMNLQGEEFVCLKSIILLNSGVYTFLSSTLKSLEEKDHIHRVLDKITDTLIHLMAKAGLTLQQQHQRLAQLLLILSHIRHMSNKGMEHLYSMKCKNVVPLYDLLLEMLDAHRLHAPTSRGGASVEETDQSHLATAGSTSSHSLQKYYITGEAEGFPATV
Outline: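 MCF7 cells in phenol red-free RPMI with 10% charcoal-stripped FBS, exposed to compound at 0.05–835 nM (10-point, 1.8×, duplicate; 0.84% DMSO) for 4 h at 37 °C. Fixed cells immunostained for ESR1 (F10 mAb, Alexa 488) with Hoechst nuclear mask; nuclear ESR1 intensity imaged per cell. DMSO and 5 nM fulvestrant set 0%/100%; EC50 and Sinf by robust fit.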

C[C@@H]1Cc2c([nH]c3ccccc23)[C@@H](c2c(F)cc(C(C#N)C3CN(CCCF)C3)cc2F)N1CC(F)(F)CO (stereo partly drawn) [Compound 150, 2-(4-((1R,3R)-2-(2,2-difluoro-3-hydroxypropyl)-3-methyl-2,3,4,9-tetrahydro-1H-pyrido[3,4-b]indol-1-yl)-3,5-difluorophenyl)-2-(1-(3-fluoropropyl)azetidin-3-yl)acetonitrile]
EC50 (MCF7 cells; Homo sapiens, MCF7, Table 1a): 0.054 nM
ER-alpha MCF7 HCS (S inf) ([1]; Table 1a, DMSO and Fulvestrant define 0% and 100% changes in ESR1): −94%

C[C@@H]1Cc2c([nH]c3ccccc23)[C@@H](c2c(F)cc(C(O)C3CN(CCC(F)F)C3)cc2F)N1CC(F)(F)CO (stereo partly drawn) [Compound 153, 3-((1R,3R)-1-(4-((1-(3,3-difluoropropyl)azetidin-3-yl)(hydroxy)methyl)-2,6-difluorophenyl)-3-methyl-3,4-dihydro-1H-pyrido[3,4-b]indol-2(9H)-yl)-2,2-difluoropropan-1-ol]
EC50 (MCF7 cells; Homo sapiens, MCF7, Table 1b): 0.17 nM
ER-alpha MCF7 HCS (S inf) ([1]; Table 1b): −92%

C[C@@H]1Cc2c([nH]c3ccccc23)[C@@H](c2c(F)cc([C@@](C)(O)C3CN(CCCF)C3)cc2F)N1CC(F)(F)CO [Compound 154, 3-((1R,3R)-1-(2,6-difluoro-4-((S)-1-(1-(3-fluoropropyl)azetidin-3-yl)-1-hydroxyethyl)phenyl)-3-methyl-3,4-dihydro-1H-pyrido[3,4-b]indol-2(9H)-yl)-2,2-difluoropropan-1-ol]
EC50 (MCF7 cells; Homo sapiens, MCF7, Table 1b): 0.058 nM
ER-alpha MCF7 HCS (S inf) ([1]; Table 1b): −98%

C[C@@H]1Cc2c([nH]c3ccccc23)[C@@H](c2c(F)cc([C@](C)(O)C3CN(CCCF)C3)cc2F)N1CC(F)(F)CO [Compound 155, 3-((1R,3R)-1-(2,6-difluoro-4-((R)-1-(1-(3-fluoropropyl)azetidin-3-yl)-1-hydroxyethyl)phenyl)-3-methyl-3,4-dihydro-1H-pyrido[3,4-b]indol-2(9H)-yl)-2,2-difluoropropan-1-ol]
EC50 (MCF7 cells; Homo sapiens, MCF7, Table 1b): 0.74 nM
ER-alpha MCF7 HCS (S inf) ([1]; Table 1b): −84%

C[C@@H]1Cc2c([nH]c3ccccc23)[C@@H](c2c(F)cc([C@H](F)C3CN(CCCF)C3)cc2F)N1C[C@H](F)CO [Compound 158, (S)-3-((1R,3R)-1-(2,6-difluoro-4-((R)-fluoro(1-(3-fluoropropyl)azetidin-3-yl)methyl)phenyl)-3-methyl-3,4-dihydro-1H-pyrido[3,4-b]indol-2(9H)-yl)-2-fluoropropan-1-ol]
EC50 (MCF7 cells; Homo sapiens, MCF7, Table 1b): 0.4 nM
ER-alpha MCF7 HCS (S inf) ([1]; Table 1b): −101%

C[C@@H]1Cc2c([nH]c3ccccc23)[C@@H](c2c(F)cc([C@@H](F)C3CN(CCCF)C3)cc2F)N1C[C@H](F)CO [Compound 159, (S)-3-((1R,3R)-1-(2,6-difluoro-4-((S)-fluoro(1-(3-fluoropropyl)azetidin-3-yl)methyl)phenyl)-3-methyl-3,4-dihydro-1H-pyrido[3,4-b]indol-2(9H)-yl)-2-fluoropropan-1-ol]
EC50 (MCF7 cells; Homo sapiens, MCF7, Table 1b): 0.081 nM
ER-alpha MCF7 HCS (S inf) ([1]; Table 1b): −99%

C[C@@H]1Cc2c([nH]c3ccccc23)[C@@H](c2c(F)cc([C@H](O)C3CN(CCCF)C3)cc2F)N1C[C@@H](F)CF [Compound 161]
EC50 (MCF7 cells; Homo sapiens, MCF7, Table 1b): 0.13 nM
ER-alpha MCF7 HCS (S inf) ([1]; Table 1b): −97%

C[C@@H]1Cc2c([nH]c3ccccc23)[C@@H](c2c(F)cc([C@@H](O)C3CN(CCCF)C3)cc2F)N1C[C@H](F)CF [Compound 162, (S)-(4-((1R,3R)-2-((S)-2,3-difluoropropyl)-3-methyl-2,3,4,9-tetrahydro-1H-pyrido[3,4-b]indol-1-yl)-3,5-difluorophenyl)(1-(3-fluoropropyl)azetidin-3-yl)methanol]
EC50 (MCF7 cells; Table 1b): 0.07 nM
ER-alpha MCF7 HCS (S inf) ([1]; Table 1b): −100%

C[C@@H]1Cc2c([nH]c3ccccc23)[C@@H](c2c(F)cc([C@H](O)C3CN(CCCF)C3)cc2F)N1C[C@H](F)CF [Compound 163]
EC50 (MCF7 cells; Homo sapiens, MCF7, Table 1b): 0.2 nM
ER-alpha MCF7 HCS (S inf) ([1]; Table 1b): −102%

CO[C@@H](c1cc(F)c([C@@H]2c3[nH]c4ccc(F)cc4c3C[C@@H](C)N2CC(F)(F)CO)c(F)c1)C1CN(CCCF)C1 [Compound 164, 3-((1R,3R)-1-(2,6-difluoro-4-((R)-(1-(3-fluoropropyl)azetidin-3-yl)(methoxy)methyl)phenyl)-6-fluoro-3-methyl-3,4-dihydro-1H-pyrido[3,4-b]indol-2(9H)-yl)-2,2-difluoropropan-1-ol]
EC50 (MCF7 cells; Homo sapiens, MCF7, Table 1b): 0.38 nM
ER-alpha MCF7 HCS (S inf) ([1]; Table 1b): −85%

CO[C@H](c1cc(F)c([C@@H]2c3[nH]c4ccc(F)cc4c3C[C@@H](C)N2CC(F)(F)CO)c(F)c1)C1CN(CCCF)C1 [Compound 165, 3-((1R,3R)-1-(2,6-difluoro-4-((S)-(1-(3-fluoropropyl)azetidin-3-yl)(methoxy)methyl)phenyl)-6-fluoro-3-methyl-3,4-dihydro-1H-pyrido[3,4-b]indol-2(9H)-yl)-2,2-difluoropropan-1-ol]
EC50 (MCF7 cells; Homo sapiens, MCF7, Table 1b): 0.17 nM
ER-alpha MCF7 HCS (S inf) ([1]; Table 1b): −92%

C[C@@H]1Cc2c([nH]c3ccccc23)[C@@H](c2c(F)cc(CC3CN(CCCF)C3)cc2F)N1C[C@H](F)CO [Compound 166, (S)-3-((1R,3R)-1-(2,6-difluoro-4-((1-(3-fluoropropyl)azetidin-3-yl)methyl)phenyl)-3-methyl-3,4-dihydro-1H-pyrido[3,4-b]indol-2(9H)-yl)-2-fluoropropan-1-ol]
EC50 (MCF7 cells; Homo sapiens, MCF7, Table 1b): 0.04 nM
ER-alpha MCF7 HCS (S inf) ([1]; Table 1b): −99%

CO[C@@H](c1cc(F)c([C@@H]2c3[nH]c4ccccc4c3C[C@@H](C)N2CC(F)(F)CO)c(F)c1)C1CN(CCCF)C1 [Compound 169, 3-((1R,3R)-1-(2,6-Difluoro-4-((R)-(1-(3-fluoropropyl)azetidin-3-yl)(methoxy)methyl)phenyl)-3-methyl-3,4-dihydro-1H-pyrido[3,4-b]indol-2(9H)-yl)-2,2-difluoropropan-1-ol]
EC50 (MCF7 cells; Homo sapiens, MCF7, Table 1b): 0.108 nM
ER-alpha MCF7 HCS (S inf) ([1]; Table 1b): −89%

CO[C@H](c1cc(F)c([C@@H]2c3[nH]c4ccccc4c3C[C@@H](C)N2CC(F)(F)CO)c(F)c1)C1CN(CCCF)C1 [Compound 170, 3-((1R,3R)-1-(2,6-Difluoro-4-((S)-(1-(3-fluoropropyl)azetidin-3-yl)(methoxy)methyl)phenyl)-3-methyl-3,4-dihydro-1H-pyrido[3,4-b]indol-2(9H)-yl)-2,2-difluoropropan-1-ol]
EC50 (MCF7 cells; Homo sapiens, MCF7, Table 1b): 0.078 nM
ER-alpha MCF7 HCS (S inf) ([1]; Table 1b): −94%

C[C@@H]1Cc2c([nH]c3ccccc23)[C@@H](c2ccc([C@H](O)C3CN(CCCF)C3)c(F)c2)N1CC(F)(F)CO [Compound 171, 2,2-difluoro-3-((1R,3R)-1-(3-fluoro-4-((R)-(1-(3-fluoropropyl)azetidin-3-yl)(hydroxy)methyl)phenyl)-3-methyl-1,3,4,9-tetrahydro-2H-pyrido[3,4-b]indol-2-yl)propan-1-ol]
EC50 (MCF7 cells; Homo sapiens, MCF7, Table 1b): 0.087 nM
ER-alpha MCF7 HCS (S inf) ([1]; Table 1b): −93%

C[C@@H]1Cc2c([nH]c3ccccc23)[C@@H](c2ccc([C@@H](O)C3CN(CCCF)C3)c(F)c2)N1CC(F)(F)CO [Compound 172, 2,2-difluoro-3-((1R,3R)-1-(3-fluoro-4-((S)-(1-(3-fluoropropyl)azetidin-3-yl)(hydroxy)methyl)phenyl)-3-methyl-1,3,4,9-tetrahydro-2H-pyrido[3,4-b]indol-2-yl)propan-1-ol]
EC50 (MCF7 cells; Homo sapiens, MCF7, Table 1b): 0.051 nM
ER-alpha MCF7 HCS (S inf) ([1]; Table 1b): −101%

C[C@@H]1Cc2c([nH]c3ccccc23)[C@@H](c2ccc([C@H](O)C3CN(CCCF)C3)c(F)c2F)N1CC(F)(F)CO [Compound 173, 3-((1R,3R)-1-(2,3-difluoro-4-((R)-(1-(3-fluoropropyl)azetidin-3-yl)(hydroxy)methyl)phenyl)-3-methyl-1,3,4,9-tetrahydro-2H-pyrido[3,4-b]indol-2-yl)-2,2-difluoropropan-1-ol]
EC50 (MCF7 cells; Homo sapiens, MCF7, Table 1b): 0.072 nM
ER-alpha MCF7 HCS (S inf) ([1]; Table 1b): −100%

C[C@@H]1Cc2c([nH]c3ccccc23)[C@@H](c2ccc([C@@H](O)C3CN(CCCF)C3)c(F)c2F)N1CC(F)(F)CO [Compound 174, 3-((1R,3R)-1-(2,3-difluoro-4-((S)-(1-(3-fluoropropyl)azetidin-3-yl)(hydroxy)methyl)phenyl)-3-methyl-1,3,4,9-tetrahydro-2H-pyrido[3,4-b]indol-2-yl)-2,2-difluoropropan-1-ol]
EC50 (MCF7 cells; Homo sapiens, MCF7, Table 1b): 0.071 nM
ER-alpha MCF7 HCS (S inf) ([1]; Table 1b): −97%

COc1cc([C@@H]2c3[nH]c4ccccc4c3C[C@@H](C)N2CC(F)(F)CO)ccc1[C@H](O)C1CN(CCCF)C1 [Compound 175, 2,2-difluoro-3-((1R,3R)-1-(4-((R)-(1-(3-fluoropropyl)azetidin-3-yl)(hydroxy)methyl)-3-methoxyphenyl)-3-methyl-1,3,4,9-tetrahydro-2H-pyrido[3,4-b]indol-2-yl)propan-1-ol]
EC50 (MCF7 cells; Homo sapiens, MCF7, Table 1b): 0.63 nM
ER-alpha MCF7 HCS (S inf) ([1]; Table 1b): −96%

COc1cc([C@@H]2c3[nH]c4ccccc4c3C[C@@H](C)N2CC(F)(F)CO)ccc1[C@@H](O)C1CN(CCCF)C1 [Compound 176, 2,2-difluoro-3-((1R,3R)-1-(4-((S)-(1-(3-fluoropropyl)azetidin-3-yl)(hydroxy)methyl)-3-methoxyphenyl)-3-methyl-1,3,4,9-tetrahydro-2H-pyrido[3,4-b]indol-2-yl)propan-1-ol]
EC50 (MCF7 cells; Homo sapiens, MCF7, Table 1b): 5.8 nM
ER-alpha MCF7 HCS (S inf) ([1]; Table 1b): −81%
